The values that follow are results of earlier work, collected in patent US20250302774A1, “LISDEX[…] OROD[…] AND PROCESS FOR PREPARATION THEREOF” (ATHENA PHARM[…], priority 2024, published 2025).

Molecules are shown by their SMILES. Where two headings read alike, the source gives them in different places.

The conditions of data set [1]: active substance, exposed to moisture, dimethanesulfonate.

Take `CS(=O)(=O)O.CS(=O)(=O)O.C[C@@H](Cc1ccccc1)NC(=O)[C@@H](N)CCCCN` [Lisdexamfetamine dimesylate, (2S)-2,6-diamino-N-[(1S)-1-methyl-2-phenylethyl]-hexanamide, dimethanesulfonate]: the solubility result (in acetone) was “very slightly soluble”; the solubility entry (in chloroform) is given as “very slightly soluble”; the solubility entry (in ethanol) is “soluble”; the solubility result (in methanol) is on record as “freely soluble”; the solubility result (in tetrahydrofuran) is on record as “practically insoluble”; the solubility entry (in toluene) is given as “very slightly soluble”. The “hygroscopic / deliquescent nature” value in data set [1] is “highly deliquescent”; in data set [1] (listed as lisdexamfetamine dimesylate), “hygroscopic”.
